Measurements: patent US11246314B2, “Trichome and pistil maturing formulation” (priority 2015, dated 2022)

Experiments:
Format in all cases: in vivo
Conditions in all cases: in words
[1] = tested on: trichomes of Cannabis plants; test: Trichome maturation on sprayed Cannabis plants
Description: (§1) Trials were done with sesame oil alone, in place of bud finisher and bud shield embodiments.
(§2) Add all ingredients to a gallon of water 7. Shake or mix well. Pour the final mixture 8 through a double mesh screen 41, into a convenient applicator such as a spray bottle 9 shown in FIG. 6. Apply directly to plants 10 over and under the leaves and flowers and upon the soil. Plant foliage should be sprayed on all surfaces until the solution is dripping off. Spray every 1-7 days as preferred as illustrated in FIG. 7.

[2] = tested on: pistils of Cannabis plants; test: Pistil maturation on sprayed Cannabis plants
Description: as §1, §2

powdery mildew = test: Control of powdery mildew, mold and mildew on plants
Description: as §1

## O=C([O-])O.[K+] [Potassium bicarbonate]
[1]
  effect on trichome maturation: little to no effect
[2]
  effect on pistil maturation: fully matures pistils quickly
Powdery mildew
  efficacy against powdery mildew / mold and mildew: very effective
